Assay results taken from article PMC11117716 (Biomolecules, 2024).

Columns and labels:
clinical = settings: human, in vivo
Procedure: This paper describes data from multiple studies. The healthy volunteers’ data come from the single ascending and multiple ascending dose study, whereas Alzheimer’s and Parkinson’s patients are represented by the MCI NCT01072812 study, ADCS NCT02925650 study, and AD/PD NCT04524351 study. The evaluations are based on a sample size of n = 4 for each time point.
In humans, plasma and lumbar CSF samples were collected via an indwelling catheter over 12 h (at 0, 1, 1.5, 2, 3, 4, 6, 8, and 12 h) initiated at the same time of day, 1 day prior to the start of dosing, to obtain time-dependent baseline control data, and then at the exact same times immediately after the last dose was administered. Samples were frozen and then stored at −80 °C.
In humans, the bioanalytical method was performed in accordance with current FDA, Industry Guidelines, and OECD Principles. […] The sample analysis was conducted in accordance with current GCP and GLP principles, and the results were presented for pharmacokinetic profiling (Absorption Systems, Exton, PA, USA). Calibration ranges for each analyte ranged from 1000 ng/mL to 1 ng/mL (or ng/g for brain) in plasma, brain, and CSF matrices. The detection limit was 0.025 ng/mL. The following PK parameters were collected for the purpose of this manuscript: maximum concentration (Cmax), time to maximum drug concentration (Tmax), half-life (T1/2), and the Area Under the Curve (AUC).

[1] = Population pharmacokinetic analysis (Nonmem) in healthy volunteers and Alzheimer's and Parkinson's patients; format: in vivo, human; settings: popPK
Procedure: Population pharmacokinetic analysis was conducted using data from healthy volunteers from Study 101 (single ascending dose study with 72 subjects) and Study 102 (multiple dose study with 48 volunteers) and in patients (multiple dose study in 68 patients with early Alzheimer’s or early Parkinson’s disease). Data were fit using a Bayesian approach as implemented in the software package Nonmem® (version 7.5.1, Icon Development Solutions, Dublin, Ireland). Standard model building approaches were used. After a base model was established, covariates were evaluated singly and assessed graphically using eta plots—The full model consisted of all statistically significant covariates identified during the single covariate evaluation phase, and back elimination was conducted. Each covariate was removed from the full model, and the impact of that removal was assessed based on model output. The final model performance was assessed graphically and using simulation with a visual predictive check (VPC). […]
The asymptotic standard errors (SEs) and nonparamet ric bootstrapped confidence intervals (CIs) estimated the parameter precision. Other model statistics were evaluated, such as etabar and associated p values. […]
substantial skewness or kurtosis; therefore, transforms were not evaluated. […]
Plasma concentration data were evaluated using an LTBS approach. […]

In the case of `CN1CC[C@]2(C)c3cc(OC(=O)Nc4ccccc4)ccc3N(C)C12.O=C(O)C(O)C(O)C(=O)O` (stereo partly drawn) [Posiphen, (3aR)-1,3a, 8-trimethyl-1,2,3,3a, 8,8a-hexahydropyrrolo (2,3-b) indol-5-yl phenylcarbamate tartrate], the Kp (clinical) is reported as 0.02, the half-life (clinical) is reported as greater than 12 h and the AUC(0-t) (clinical; po) is reported as 20.7 ng·h/mL. For the same compound, the Cmax (clinical; po) was 2.23 ng/mL, the T1/2 (clinical; po) was 3 h and the Tmax (clinical; po) was 17.26 h. The “Tmax (time of Cmax)” value (clinical; po) was 3 h, the Km ([1]; human, plasma, oral, as dose increased from 0.04 to 2.4 mg/kg, read-out: Michaelis constant (km)) was 0.01 to 0.015 µg/mL and the “Variability in absorption, metabolism and clearance between healthy subjects and Alzheimer's or Parkinson's patients” value [1] was “no variability”.
